From patent publication US11446287B2, “Compounds and methods for EP300 or CBP modulation and indications therefor” (Opna Immuno-Oncology SA, priority 2019, dated 2022)

Target: T1, Recombinant human EP300 containing the bromodomain (EP300-BD (1040-1161)) (Homo sapiens, UniProt Q09472)
T1 construct: Recombinant human EP300 bromodomain (EP300-BD (1040-1161)); made in house; host or cells: E. coli BL21-CodonPlus (DE3), modified pET vector
T1 sequence (Q09472 1040-1161): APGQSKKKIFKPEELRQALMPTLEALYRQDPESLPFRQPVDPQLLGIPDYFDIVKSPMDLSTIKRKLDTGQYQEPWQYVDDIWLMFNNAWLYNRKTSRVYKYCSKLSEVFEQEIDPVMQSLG
Experiment: EP300 Alphascreen binding assay
How it was run: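 Displacement of a biotinylated acetyl-K56 histone H3 peptide from the N-His bromodomain construct (1040-1161) measured by AlphaScreen proximity, beads at 7.5 μg/ml final, read 60 min after addition. Protein, peptide and compound first incubated 1 h at room temperature, pH 7.5 HEPES buffer; IC50 by four-parameter logistic fit.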

Row | SMILES | IC50
1 | CCn1cc(-n2cc(-c3ccc(C(=O)O)cc3OC(F)(F)F)c3cc(-c4c(C)noc4C)cnc32)c(C)n1 [P-0287, 4-(5-(3,5-dimethylisoxazol-4-yl)-1-(1-ethyl-3-methyl-1H-pyrazol-4-yl)-1H-pyrrolo[2,3-b]pyridin-3-yl)-3-(trifluoromethoxy)benzoic acid] | 0.1 to 1000 nM
2 | Cc1nn(C(F)F)cc1-n1cc(-c2ccc(C(=O)O)cc2OC(F)(F)F)c2cc(-c3c(C)noc3C)cnc21 [P-0288, 4-(1-(1-(difluoromethyl)-3-methyl-1H-pyrazol-4-yl)-5-(3,5-dimethylisoxazol-4-yl)-1H-pyrrolo[2,3-b]pyridin-3-yl)-3-(trifluoromethoxy)benzoic acid] | 0.1 to 1000 nM
3 | Cc1noc(C)c1-c1cnc2c(c1)c(-c1ccc(C(=O)O)cc1OC(F)(F)F)cn2-c1cnn(C(F)F)c1C [P-0289, 4-(1-(1-(difluoromethyl)-5-methyl-1H-pyrazol-4-yl)-5-(3,5-dimethylisoxazol-4-yl)-1H-pyrrolo[2,3-b]pyridin-3-yl)-3-(trifluoromethoxy)benzoic acid] | 0.1 to 1000 nM
4 | Cc1noc(C)c1-c1cnc2c(c1)c(-c1ccc(C(=O)O)cc1OC(F)(F)F)cn2C1CCNCC1 [P-0290, 4-(5-(3,5-dimethylisoxazol-4-yl)-1-(piperidin-4-yl)-1H-pyrrolo[2,3-b]pyridin-3-yl)-3-(trifluoromethoxy)benzoic acid] | 0.1 to 1000 nM
5 | CC(=O)N1CCC(n2cc(-c3ccc(C(=O)O)cc3OC(F)(F)F)c3cc(-c4c(C)noc4C)cnc32)CC1 [P-0291, 4-(1-(1-acetylpiperidin-4-yl)-5-(3,5-dimethylisoxazol-4-yl)-1H-pyrrolo[2,3-b]pyridin-3-yl)-3-(trifluoromethoxy)benzoic acid] | 0.1 to 1000 nM
6 | Cc1noc(C)c1-c1cnc2c(c1)c(-c1ccc(C(=O)O)cc1OC(F)(F)F)cn2C1CCN(S(C)(=O)=O)CC1 [P-0292, 4-(5-(3,5-dimethylisoxazol-4-yl)-1-(1-(methylsulfonyl)piperidin-4-yl)-1H-pyrrolo[2,3-b]pyridin-3-yl)-3-(trifluoromethoxy)benzoic acid] | 0.1 to 1000 nM
7 | Cc1noc(C)c1-c1cnc2c(c1)c(-c1ccc(C(=O)O)cc1OC(F)(F)F)cn2-c1ccncc1F [P-0293, 4-(5-(3,5-dimethylisoxazol-4-yl)-1-(3-fluoropyridin-4-yl)-1H-pyrrolo[2,3-b]pyridin-3-yl)-3-(trifluoromethoxy)benzoic acid] | 0.1 to 1000 nM
8 | Cc1noc(C)c1-c1cnc2c(c1)c(-c1ccc(C(=O)O)cc1OC(F)(F)F)cn2-c1cnn(CC(C)(C)O)c1 [P-0294, 4-(5-(3,5-dimethylisoxazol-4-yl)-1-(1-(2-hydroxy-2-methylpropyl)-1H-pyrazol-4-yl)-1H-pyrrolo[2,3-b]pyridin-3-yl)-3-(trifluoromethoxy)benzoic acid] | 0.1 to 1000 nM
9 | CCOc1cc(C(=O)O)ncc1-c1cn(-c2ccc(F)cc2F)c2ncc(-c3c(C)noc3C)cc12 [P-0295, 5-(1-(2,4-difluorophenyl)-5-(3,5-dimethylisoxazol-4-yl)-1H-pyrrolo[2,3-b]pyridin-3-yl)-4-ethoxypicolinic acid] | 0.1 to 1000 nM
10 | CCOc1c(F)c(C(=O)O)c(F)c(OCC)c1-c1cn(-c2ccc(F)cc2F)c2ncc(-c3c(C)noc3C)cc12 [P-0296, 4-(1-(2,4-difluorophenyl)-5-(3,5-dimethylisoxazol-4-yl)-1H-pyrrolo[2,3-b]pyridin-3-yl)-3,5-diethoxy-2,6-difluorobenzoic acid] | 0.1 to 1000 nM
11 | CCOc1cc(C(=O)O)c(F)c(OCC)c1-c1cn(-c2ccc(F)cc2F)c2ncc(-c3c(C)noc3C)cc12 [P-0297, 4-(1-(2,4-difluorophenyl)-5-(3,5-dimethylisoxazol-4-yl)-1H-pyrrolo[2,3-b]pyridin-3-yl)-3,5-diethoxy-2-fluorobenzoic acid] | 0.1 to 1000 nM
12 | Cc1noc(C)c1-c1cnc2c(-c3ccccc3)cn(-c3c(OCC(F)(F)F)cc(C(=O)O)cc3OCC(F)(F)F)c2c1 [P-0298, 4-(6-(3,5-dimethylisoxazol-4-yl)-3-phenyl-1H-pyrrolo[3,2-b]pyridin-1-yl)-3,5-bis(2,2,2-trifluoroethoxy)benzoic acid] | 0.1 to 1000 nM
13 | Cc1noc(C)c1-c1cnc2c(c1)c(-c1ccc(C(=O)O)cc1OC(C)C)cn2-c1cnn(CC(C)(C)O)c1 [P-0299, 4-(5-(3,5-dimethylisoxazol-4-yl)-1-(1-(2-hydroxy-2-methylpropyl)-1H-pyrazol-4-yl)-1H-pyrrolo[2,3-b]pyridin-3-yl)-3-isopropoxybenzoic acid] | 0.1 to 1000 nM
14 | Cc1noc(C)c1-c1cnc2c(c1)c(-c1ccc(C(=O)O)cc1OC(C)C)cn2-c1cnc(N2CCC2)nc1 [P-0300, 4-(1-(2-(azetidin-1-yl)pyrimidin-5-yl)-5-(3,5-dimethylisoxazol-4-yl)-1H-pyrrolo[2,3-b]pyridin-3-yl)-3-isopropoxybenzoic acid] | 0.1 to 1000 nM
15 | Cc1noc(C)c1-c1cnc2c(c1)c(-c1ccc(C(=O)O)cc1OC(C)C)cn2[C@H]1CCOC1 [P-0301, (S)-4-(5-(3,5-dimethylisoxazol-4-yl)-1-(tetrahydrofuran-3-yl)-1H-pyrrolo[2,3-b]pyridin-3-yl)-3-isopropoxybenzoic acid] | 0.1 to 1000 nM
16 | Cc1noc(C)c1-c1cnc2c(c1)c(-c1ccc(S(C)(=O)=O)cc1OC(C)C)cn2-c1ccccc1 [P-0302, 4-(3-(2-isopropoxy-4-(methylsulfonyl)phenyl)-1-phenyl-1H-pyrrolo[2,3-b]pyridin-5-yl)-3,5-dimethylisoxazole] | 0.1 to 1000 nM
17 | CCCn1nc(C(=O)O)c(N)c1-c1cn(-c2ccc(F)cc2F)c2ncc(-c3c(C)noc3C)cc12 [P-0303, 4-amino-5-(1-(2,4-difluorophenyl)-5-(3,5-dimethylisoxazol-4-yl)-1H-pyrrolo[2,3-b]pyridin-3-yl)-1-propyl-1H-pyrazole-3-carboxylic acid] | 0.1 to 1000 nM
18 | CCCn1nc(C(=O)O)c(NCC)c1-c1cn(-c2ccc(F)cc2F)c2ncc(-c3c(C)noc3C)cc12 [P-0304, 5-(1-(2,4-difluorophenyl)-5-(3,5-dimethylisoxazol-4-yl)-1H-pyrrolo[2,3-b]pyridin-3-yl)-4-(ethylamino)-1-propyl-1H-pyrazole-3-carboxylic acid] | 0.1 to 1000 nM
19 | Cc1nnn(C)c1-c1cnc2c(c1)c(-c1ccc(C(=O)O)cc1OC(F)(F)F)cn2CC/C=C/C1CC1 [P-0305, (E)-4-(1-(4-cyclopropylbut-3-en-1-yl)-5-(1,4-dimethyl-1H-1,2,3-triazol-5-yl)-1H-pyrrolo[2,3-b]pyridin-3-yl)-3-(trifluoromethoxy)benzoic acid] | 0.1 to 1000 nM
20 | Cc1noc(C)c1-c1cnc2c(c1)c(-c1ccc(C(=O)O)cc1OCC(F)F)cn2-c1ccncc1Cl [P-0306, 4-(1-(3-chloropyridin-4-yl)-5-(3,5-dimethylisoxazol-4-yl)-1H-pyrrolo[2,3-b]pyridin-3-yl)-3-(2,2-difluoroethoxy)benzoic acid] | 0.1 to 1000 nM
21 | Cc1noc(C)c1-c1cnc2c(c1)c(-c1ccc(C(=O)O)cc1OC(F)(F)F)cn2-c1ccccc1Cl [P-0307, 4-(1-(2-chlorophenyl)-5-(3,5-dimethylisoxazol-4-yl)-1H-pyrrolo[2,3-b]pyridin-3-yl)-3-(trifluoromethoxy)benzoic acid] | 0.1 to 1000 nM
22 | Cc1noc(C)c1-c1cnc2c(c1)c(-c1ccc(C(=O)O)cc1OC(F)(F)F)cn2-c1ccccc1C1CC1 [P-0308, 4-(1-(2-cyclopropylphenyl)-5-(3,5-dimethylisoxazol-4-yl)-1H-pyrrolo[2,3-b]pyridin-3-yl)-3-(trifluoromethoxy)benzoic acid] | 0.1 to 1000 nM
